From ChEMBL document CHEMBL3739316, “Novel orally active inhibitors of β-1,3-glucan synthesis derived from enfumafungin” (Bioorg Med Chem Lett, 2015)
Values after ≈ are worked out from the molar mass of the structure shown.

Legend:
Beta-1,3-glucan synthase = target: T1, Beta-1,3-glucan synthase (Candida albicans, UniProt O13383); assay: Displacement of UDP-[3H]glucose from beta-1,3-glucan synthase in Candida albicans MY1055 microsomal membranes incubated for 2 hrs
T1 sequence (O13383 whole entry): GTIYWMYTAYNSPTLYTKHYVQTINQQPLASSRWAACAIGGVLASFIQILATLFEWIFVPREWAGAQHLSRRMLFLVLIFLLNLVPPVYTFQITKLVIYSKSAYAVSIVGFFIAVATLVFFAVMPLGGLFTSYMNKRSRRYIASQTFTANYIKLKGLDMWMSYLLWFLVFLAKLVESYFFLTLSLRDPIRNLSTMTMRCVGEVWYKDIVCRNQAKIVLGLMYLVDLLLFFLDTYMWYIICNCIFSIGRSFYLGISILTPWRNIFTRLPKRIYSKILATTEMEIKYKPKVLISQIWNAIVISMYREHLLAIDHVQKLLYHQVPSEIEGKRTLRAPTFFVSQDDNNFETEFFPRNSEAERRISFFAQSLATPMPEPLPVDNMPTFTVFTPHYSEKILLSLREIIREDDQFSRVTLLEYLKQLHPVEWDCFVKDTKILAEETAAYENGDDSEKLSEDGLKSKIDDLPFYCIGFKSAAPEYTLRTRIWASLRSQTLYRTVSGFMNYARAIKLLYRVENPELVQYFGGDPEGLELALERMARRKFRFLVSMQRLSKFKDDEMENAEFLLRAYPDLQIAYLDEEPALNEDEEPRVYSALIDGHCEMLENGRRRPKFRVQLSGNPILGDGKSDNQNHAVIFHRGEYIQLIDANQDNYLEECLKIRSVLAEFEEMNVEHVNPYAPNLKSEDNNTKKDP

Candida albicans [1] = assay: Antifungal activity against Candida albicans MY1055 after 24 hrs by liquid microdilution assay; format: functional; settings: MY1055, 24 h
Aspergillus fumigatus = assay: Antifungal activity against Aspergillus fumigatus MF5668 after 24 hrs by liquid microdilution assay; format: functional; settings: MF5668, 24 h, read-out: MEC
Candida albicans [2] = assay: Antifungal activity against Candida albicans MY1055 after 24 hrs by liquid microdilution assay in presence of human serum; format: functional; settings: MY1055, 24 h
Mus musculus = assay: Dose normalized AUC in orally dosed mouse; format: ADME, organism-based; settings: in vivo, po
[3] = Oral bioavailability in mouse; format: ADME, organism-based; settings: in vivo
Candida albicans [4] = assay: Antifungal activity against Candida albicans MY1055 in DBA/2 mouse candidiasis model assessed as change in CFU per gram of kidney at 25 mg/kg, po bid after 4 days by Target Organ Kidney Assay relative to sham treated control; format: functional
Candida albicans [5] = assay: Antifungal activity against Candida albicans MY1055 in DBA/2 mouse candidiasis model assessed as change in CFU per gram of kidney at 12.5 mg/kg, po bid after 4 days by Target Organ Kidney Assay relative to sham treated control; format: functional
Candida albicans [6] = assay: Antifungal activity against Candida albicans MY1055 in DBA/2 mouse candidiasis model assessed as change in CFU per gram of kidney at 6.25 mg/kg, po bid after 4 days by Target Organ Kidney Assay relative to sham treated control; format: functional

CC(C)[C@@H](C)[C@@]1(C)CC[C@]2(C)[C@H]3CC[C@H]4C5(C)COC[C@@]4(C[C@@H](n4cc6ccccc6n4)[C@@H]5O[C@@H]4O[C@H](CO)[C@@H](O)[C@H](O)[C@H]4O)C3=CC[C@@]2(C)[C@@H]1C(=O)O
IC50 (Beta-1,3-glucan synthase): 1200 nM | MIC (Candida albicans [1]): 32 µg/mL (≈ 42.6 µM) | minimal effective concentration (Aspergillus fumigatus): 2 µg/mL | MIC (Candida albicans [2]): > 32 µg/mL

CC(=O)O[C@@H]1C[C@@]23COCC(C)([C@H]1OC[C@](C)(N)C(C)C)[C@@H]2CC[C@H]1C3=CC[C@@]2(C)[C@H](C(=O)O)[C@@](C)([C@H](C)C(C)C)CC[C@]12C
IC50 (Beta-1,3-glucan synthase): 9.52 nM | MIC (Candida albicans [1]): 0.5 µg/mL (≈ 0.794 µM) | minimal effective concentration (Aspergillus fumigatus): 0.06 µg/mL | MIC (Candida albicans [2]): > 32 µg/mL | AUC/dose (Mus musculus): 1.38 µM·kg·h/mg | bioavailability [3]: 39% | Activity (Candida albicans [4]): -2.2 deltalog10CFU | Activity (Candida albicans [5]): -0.6 deltalog10CFU | Activity (Candida albicans [6]): -0.6 deltalog10CFU

CC(=O)O[C@@H]1C[C@@]23COCC(C)([C@H]1OCC(C)(C)N)[C@@H]2CC[C@H]1C3=CC[C@@]2(C)[C@H](C(=O)O)[C@@](C)([C@H](C)C(C)C)CC[C@]12C
IC50 (Beta-1,3-glucan synthase): 74.8 nM | MIC (Candida albicans [1]): 1 µg/mL (≈ 1.66 µM) | minimal effective concentration (Aspergillus fumigatus): < 0.03 µg/mL | MIC (Candida albicans [2]): 32 µg/mL | AUC/dose (Mus musculus): 1.22 µM·kg·h/mg | bioavailability [3]: 37% | Activity (Candida albicans [4]): -1.4 deltalog10CFU

CC(=O)Nc1nnn([C@@H]2C[C@@]34COCC(C)([C@H]2OC[C@](C)(N)C(C)C)[C@@H]3CC[C@H]2C4=CC[C@@]3(C)[C@H](C(=O)O)[C@@](C)([C@H](C)C(C)C)CC[C@]23C)n1
IC50 (Beta-1,3-glucan synthase): 86.1 nM | MIC (Candida albicans [1]): 0.25 µg/mL (≈ 0.359 µM) | minimal effective concentration (Aspergillus fumigatus): < 0.03 µg/mL | MIC (Candida albicans [2]): 16 µg/mL

CC(C)[C@@H](C)[C@@]1(C)CC[C@]2(C)[C@H]3CC[C@H]4C5(C)COC[C@@]4(C[C@@H](n4ccnn4)[C@@H]5O[C@@H]4O[C@H](CO)[C@@H](O)[C@H](O)[C@H]4O)C3=CC[C@@]2(C)[C@@H]1C(=O)O
IC50 (Beta-1,3-glucan synthase): > 14200 nM | MIC (Candida albicans [1]): > 32 µg/mL | minimal effective concentration (Aspergillus fumigatus): 2 µg/mL | MIC (Candida albicans [2]): > 32 µg/mL

CCCCN[C@@](C)(CO[C@H]1[C@H](n2nnc(N)n2)C[C@@]23COCC1(C)[C@@H]2CC[C@H]1C3=CC[C@@]2(C)[C@H](C(=O)O)[C@@](C)([C@H](C)C(C)C)CC[C@]12C)C(C)C
IC50 (Beta-1,3-glucan synthase): 14.1 nM | MIC (Candida albicans [1]): 16 µg/mL (≈ 22.5 µM) | minimal effective concentration (Aspergillus fumigatus): 0.125 µg/mL | MIC (Candida albicans [2]): 32 µg/mL | AUC/dose (Mus musculus): 0.74 µM·kg·h/mg | bioavailability [3]: 30% | Activity (Candida albicans [4]): -2.6 deltalog10CFU | Activity (Candida albicans [5]): -1.2 deltalog10CFU | Activity (Candida albicans [6]): -0.1 deltalog10CFU

COc1ccc([C@@H]2C[C@@]34COCC(C)([C@H]2O[C@@H]2O[C@H](CO)[C@@H](O)[C@H](O)[C@H]2O)[C@@H]3CC[C@H]2C4=CC[C@@]3(C)[C@H](C(=O)O)[C@@](C)([C@H](C)C(C)C)CC[C@]23C)cc1
IC50 (Beta-1,3-glucan synthase): 634 nM | MIC (Candida albicans [1]): 2 µg/mL (≈ 2.7 µM) | minimal effective concentration (Aspergillus fumigatus): 0.25 µg/mL | MIC (Candida albicans [2]): > 32 µg/mL

CC(C)[C@@H](C)[C@@]1(C)CC[C@]2(C)[C@H]3CC[C@H]4C5(C)COC[C@@]4(C[C@@H](Oc4ccccc4)[C@@H]5O[C@@H]4O[C@H](CO)[C@@H](O)[C@H](O)[C@H]4O)C3=CC[C@@]2(C)[C@@H]1C(=O)O
IC50 (Beta-1,3-glucan synthase): 578 nM | MIC (Candida albicans [1]): 2 µg/mL (≈ 2.75 µM) | minimal effective concentration (Aspergillus fumigatus): 0.125 µg/mL | MIC (Candida albicans [2]): 32 µg/mL

CC(C)[C@@H](C)[C@@]1(C)CC[C@]2(C)[C@H]3CC[C@H]4C5(C)COC[C@@]4(C[C@@H](n4cncn4)[C@@H]5O[C@@H]4O[C@H](CO)[C@@H](O)[C@H](O)[C@H]4O)C3=CC[C@@]2(C)[C@@H]1C(=O)O
IC50 (Beta-1,3-glucan synthase): 342 nM | MIC (Candida albicans [1]): 2 µg/mL (≈ 2.85 µM) | minimal effective concentration (Aspergillus fumigatus): 0.125 µg/mL | MIC (Candida albicans [2]): 32 µg/mL

CC(C)[C@@H](C)[C@@]1(C)CC[C@]2(C)[C@H]3CC[C@H]4C5(C)COC[C@@]4(C[C@@H](n4ccc6ccccc64)[C@@H]5O[C@@H]4O[C@H](CO)[C@@H](O)[C@H](O)[C@H]4O)C3=CC[C@@]2(C)[C@@H]1C(=O)O
IC50 (Beta-1,3-glucan synthase): 1410 nM | MIC (Candida albicans [1]): > 32 µg/mL | minimal effective concentration (Aspergillus fumigatus): 4 µg/mL | MIC (Candida albicans [2]): > 32 µg/mL

CC(C)[C@@H](C)[C@@]1(C)CC[C@]2(C)[C@H]3CC[C@H]4C5(C)COC[C@@]4(C[C@@H](n4nccn4)[C@@H]5O[C@@H]4O[C@H](CO)[C@@H](O)[C@H](O)[C@H]4O)C3=CC[C@@]2(C)[C@@H]1C(=O)O
IC50 (Beta-1,3-glucan synthase): 1410 nM | MIC (Candida albicans [1]): > 32 µg/mL | minimal effective concentration (Aspergillus fumigatus): 0.5 µg/mL | MIC (Candida albicans [2]): > 32 µg/mL

CC(=O)Nc1nnnn1[C@@H]1C[C@@]23COCC(C)([C@H]1OC[C@](C)(N)C(C)C)[C@@H]2CC[C@H]1C3=CC[C@@]2(C)[C@H](C(=O)O)[C@@](C)([C@H](C)C(C)C)CC[C@]12C
IC50 (Beta-1,3-glucan synthase): 81.8 nM | MIC (Candida albicans [1]): 8 µg/mL (≈ 11.5 µM) | minimal effective concentration (Aspergillus fumigatus): < 0.03 µg/mL | MIC (Candida albicans [2]): > 32 µg/mL

Cc1nnn([C@@H]2C[C@@]34COCC(C)([C@H]2OC[C@](C)(N)C(C)C)[C@@H]3CC[C@H]2C4=CC[C@@]3(C)[C@H](C(=O)O)[C@@](C)([C@H](C)C(C)C)CC[C@]23C)n1
IC50 (Beta-1,3-glucan synthase): 24.5 nM | MIC (Candida albicans [1]): 1 µg/mL (≈ 1.53 µM) | minimal effective concentration (Aspergillus fumigatus): 0.5 µg/mL | MIC (Candida albicans [2]): > 32 µg/mL

Cc1nnnn1[C@@H]1C[C@@]23COCC(C)([C@H]1OC[C@](C)(N)C(C)C)[C@@H]2CC[C@H]1C3=CC[C@@]2(C)[C@H](C(=O)O)[C@@](C)([C@H](C)C(C)C)CC[C@]12C
IC50 (Beta-1,3-glucan synthase): 71.9 nM | MIC (Candida albicans [1]): 8 µg/mL (≈ 12.2 µM) | minimal effective concentration (Aspergillus fumigatus): 4 µg/mL | MIC (Candida albicans [2]): > 32 µg/mL

CC(C)[C@@H](C)[C@@]1(C)CC[C@]2(C)[C@H]3CC[C@H]4C5(C)COC[C@@]4(C[C@@H](n4cccn4)[C@@H]5O[C@@H]4O[C@H](CO)[C@@H](O)[C@H](O)[C@H]4O)C3=CC[C@@]2(C)[C@@H]1C(=O)O
IC50 (Beta-1,3-glucan synthase): 813 nM | MIC (Candida albicans [1]): 2 µg/mL (≈ 2.85 µM) | minimal effective concentration (Aspergillus fumigatus): 0.06 µg/mL | MIC (Candida albicans [2]): > 32 µg/mL

CC(C)[C@@H](C)[C@@]1(C)CC[C@]2(C)[C@H]3CC[C@H]4C5(C)COC[C@@]4(C[C@@H](n4ncc6ccccc64)[C@@H]5O[C@@H]4O[C@H](CO)[C@@H](O)[C@H](O)[C@H]4O)C3=CC[C@@]2(C)[C@@H]1C(=O)O
IC50 (Beta-1,3-glucan synthase): > 1330 nM | MIC (Candida albicans [1]): 32 µg/mL (≈ 42.6 µM) | minimal effective concentration (Aspergillus fumigatus): 8 µg/mL | MIC (Candida albicans [2]): > 32 µg/mL

CC(=O)O[C@@H]1C[C@@]23COCC(C)([C@H]1OC[C@@](C)(N)C(C)C)[C@@H]2CC[C@H]1C3=CC[C@@]2(C)[C@H](C(=O)O)[C@@](C)([C@H](C)C(C)C)CC[C@]12C
IC50 (Beta-1,3-glucan synthase): 22.2 nM | MIC (Candida albicans [1]): 0.25 µg/mL (≈ 0.397 µM) | minimal effective concentration (Aspergillus fumigatus): < 0.03 µg/mL | MIC (Candida albicans [2]): 16 µg/mL | AUC/dose (Mus musculus): 0.73 µM·kg·h/mg | bioavailability [3]: 31% | Activity (Candida albicans [4]): -1.9 deltalog10CFU | Activity (Candida albicans [5]): -0.1 deltalog10CFU | Activity (Candida albicans [6]): -0.5 deltalog10CFU

CC(C)[C@@H](C)[C@@]1(C)CC[C@]2(C)[C@H]3CC[C@H]4C5(C)COC[C@@]4(C[C@@H](n4cnnc4)[C@@H]5O[C@@H]4O[C@H](CO)[C@@H](O)[C@H](O)[C@H]4O)C3=CC[C@@]2(C)[C@@H]1C(=O)O
MIC (Candida albicans [1]): 4 µg/mL (≈ 5.7 µM) | minimal effective concentration (Aspergillus fumigatus): 1 µg/mL | MIC (Candida albicans [2]): > 32 µg/mL

CC(C)[C@@H](C)[C@@]1(C)CC[C@]2(C)[C@H]3CC[C@H]4C5(C)COC[C@@]4(C[C@@H](n4nnnc4N)[C@@H]5OC[C@](C)(N)C(C)C)C3=CC[C@@]2(C)[C@@H]1C(=O)O
IC50 (Beta-1,3-glucan synthase): 56.5 nM | MIC (Candida albicans [1]): 4 µg/mL (≈ 6.11 µM) | minimal effective concentration (Aspergillus fumigatus): 0.25 µg/mL | MIC (Candida albicans [2]): > 32 µg/mL
